Patent US11479546B2, “Antimalarial hexahydropyrimidine analogues” (UCB Biopharma SRL, priority 2018, dated 2022)

Tested on: Plasmodium falciparum 3D7
Assay: P. falciparum 3D7 asexual blood stage assay, Assay Procedure Version 2 (SYBR green readout)
Assay type: cell-based
Details: Version 2 of the assay procedure (asterisk *), 72 h incubation in infected erythrocytes, 50,000 nM to 15 nM
Method: Asexual Blood Stage Assay
The assay used to measure the effect of test compounds on a bloodstream stage of Plasmodium falciparum 3D7 strain employs SYBR green as the readout. This is a dye that binds to double stranded deoxyribonucleic acid (DNA) with a resulting increase in fluorescence, allowing detection of P. falciparum DNA in infected erythrocytes, and thereby providing a measure of parasite growth and propagation.
P. falciparum Culture Maintenance
Erythrocytes (A+blood) were prepared for both parasite culture and assay by washing 4 times with incomplete media (15.9 g RPMI 1640 (25 mM HEPES, L-glutamine), 1 g NaHCO3, 2 g glucose, 400 μL gentacin (500 mg/mL), 2 mL hypoxanthine solution (13.6 g/L in 0.1M NaOH pH 7.3) in 1 litre of media). The cells were centrifuged at 1800 g for 5 minutes, before decanting the supernatant and re-suspending in fresh incomplete media. On the final wash, the cells were re-suspended in complete media (incomplete media with 5 g/L AlbumaxII), and centrifuged at 1800 g for 3 minutes. This cell sediment was treated as 100% haematocrit.
P. falciparum 3D7 was cultured in erythrocytes at 5% haematocrit in complete media at 37° C. (1% O2, 3% CO2, balance N2). Cultures were split on a weekly basis to achieve a 1% parasitaemia in erythrocites at 5% haematocrit in fresh media. Culture media is replaced by fresh media every other day (2 times during the week).
[formula] where A=% inhibition at bottom; B=% inhibition at top; C=EC50; D=slope; x=inhibitor concentration; and y=% inhibition. […] Assay Procedure—Version 2
On day 1, test compounds were added to assay plates using Echo dispensing technology ([…] and 20 points titration). 50 nL of each compound dilution was added to 50 μL of culture (5% haematocrit, 0.5% parasitaemia) and incubated for 72 h at 37° C. (1% O2, 3% CO2, balance N2). Final concentrations of test compounds ranged from 50,000 nM to 15 nM, in […].
On day 4, 10 μL SYBR green (Invitrogen S7563 supplied as 10,000× concentrate in DMSO) pre-diluted to 3× concentrate with Lysis buffer (20 mM Tris pH 7.9, 5% EDTA, 0.16% w/v, 1.6% TX100 v/v) was added to the cultures and incubated in the dark, overnight, at room temperature.
On day 5, fluorescent signal was measured using a BioTek plate reader (excitation 485 nm, emission 528 nm). All data were processed using IDBS ActivityBase. Raw data were converted into percent inhibition through linear regression by setting the high inhibition control (mefloquine) as 100% and the no inhibition control (DMSO) as 0%. Quality control criteria for passing plates were as follows: Z′>0.5, S:B>3, % CV(no inhibition control)<15. The formula used to calculate Z′ is:
[formula] where μ denotes the mean; σ denotes the standard deviation; p denotes the positive control; and n denotes the negative control.
All EC50 curve fitting was undertaken using the following bi-phasic two site dose response using XLfit model 300 (IDBS):
[formula] where A=100 minus the top of the upper curve 1 and the bottom of lower curve; B=Hill slope; log(C)=IC50 concentration at lower site; log(D)=IC50 concentration at upper site; x=inhibitor concentration; and y=% inhibition.

[1] = Plasmodium falciparum, 3D7, Erythrocyte, 72 h

Compound	IC50 [1]	IC50
CC1(C)CC(N2C(=N)N[C@](C)(c3cccc(Nc4cnc(C(C)(C)C)cn4)c3Cl)CC2=O)CCO1 (single isomer, unassigned) [Example 149, (6S)-6-{3-[(5-tert-Butylpyrazin-2-yl)amino]-2-chlorophenyl}-3-[(4S*)-2,2-dimethyltetrahydro-pyran-4-yl]-2-imino-6-methyl-hexahydropyrimidin-4-one]	1.38 µM	–
C[C@@H]1C[C@H](N2C(=N)N[C@](C)(c3cccc(Nc4ccc(OCC(F)(F)F)nc4)c3Cl)CC2=O)CCO1 (relative stereo) [Example 201, (6S)-6-(2-Chloro-3-{[6-(2,2,2-trifluoroethoxy)pyridin-3-yl]-amino}phenyl)-2-imino-6-methyl-3-[(2R*,4R*)-2-methyl-tetrahydropyran-4-yl]-hexahydropyrimidin-4-one]	0.102 µM	–
C[C@@H]1C[C@@H](N2C(=N)N[C@](C)(c3cccc(Nc4ccc(OC(F)F)nc4)c3Cl)CC2=O)CCO1 (single isomer, unassigned; peak 1) [Example 191, (6S)-6-(2-Chloro-3-{[6-(difluoromethoxy)pyridin-3-yl]-amino}phenyl)-2-imino-6-methyl-3-[(2R*,4S*)-2-methyl-tetrahydropyran-4-yl]-hexahydropyrimidin-4-one (Peak 1)]	0.363 µM	–
Cc1ccc(Nc2cccc([C@]3(C)CC(=O)N([C@H]4C[C@@](C)(O)C4)C(=N)N3)c2Cl)cn1 [Example 125, (6S)-6-{2-Chloro-3-[(6-methyl-pyridin-3-yl)amino]phenyl}-3-(3-hydroxy-3-methylcyclo-butyl)-2-imino-6-methyl-hexahydropyrimidin-4-one]	1.1 µM	–
CC1(C)CC(N2C(=N)N[C@](C)(c3cccc(Nc4cnc(C5CC5)cn4)c3Cl)CC2=O)CCO1 (single isomer, unassigned) [Example 151, (6S)-6-{2-Chloro-3-[(5-cyclo-propylpyrazin-2-yl)amino]-phenyl}-3-[(4S*)-2,2-dimethyl-tetrahydropyran-4-yl]-2-imino-6-methylhexahydropyrimidin-4-one]	0.707 µM	–
C[C@@]1(c2cccc(Nc3ccc(Cl)cc3)c2Cl)CC(=O)N([C@H]2C[C@@](C)(O)C2)C(=N)N1 [Example 176, (6S)-6-[2-Chloro-3-(4-chloro-anilino)phenyl]-3-(3-hydroxy-3-methylcyclobutyl)-2-imino-6-methylhexahydropyrimidin-4-one]	0.46 µM	–
C[C@@]1(c2cccc(Nc3ccc(OC(F)F)nc3)c2Cl)CC(=O)N(C2CCC(F)(F)CC2)C(=N)N1 [Example 140, (6S)-6-(2-Chloro-3-{[6-(difluoromethoxy)pyridin-3-yl]-amino}phenyl)-3-(4,4-difluoro-cyclohexyl)-2-imino-6-methyl-hexahydropyrimidin-4-one]	0.704 µM	–
Cc1ccc(Nc2cccc([C@]3(C)CC(=O)N(C4CCOC(C)(C)C4)C(=N)N3)c2Cl)cn1 (single isomer, unassigned) [Example 145, (6S)-6-{2-Chloro-3-[(6-methyl-pyridin-3-yl)amino]phenyl}-3-[(4R*)-2,2-dimethyltetrahydro-pyran-4-yl]-2-imino-6-methyl-hexahydropyrimidin-4-one]	–	1.26 µM
C[C@@H]1C[C@H](N2C(=N)N[C@](C)(c3cccc(Nc4ccc(Cl)cc4)c3Cl)CC2=O)CCO1 (relative stereo) [Example 155, (6S)-6-[2-Chloro-3-(4-chloro-anilino)phenyl]-2-imino-6-methyl-3-[(2R*,4R*)-2-methyl-tetrahydropyran-4-yl]-hexahydropyrimidin-4-one]	0.071 µM	–
C[C@@H]1C[C@H](N2C(=N)N[C@](C)(c3cccc(Nc4ccc(C5CC5)nc4)c3Cl)CC2=O)CCO1 (relative stereo) [Example 198, (6S)-6-{2-Chloro-3-[(6-cyclo-propylpyridin-3-yl)amino]-phenyl}-2-imino-6-methyl-3-[(2R*,4R*)-2-methyltetrahydro-pyran-4-yl]hexahydropyrimidin-4-one]	0.022 µM	–

Continued, values first:

IC50 [1]	IC50	Compound
0.347 µM	–	C[C@@]1(c2cccc(Nc3ccc(C(F)F)nc3C#N)c2Cl)CC(=O)N(C2CCOCC2)C(=N)N1 [Example 100, 3-{2-Chloro-3-[(4S)-2-imino-4-methyl-6-oxo-1-(tetrahydro-pyran-4-yl)hexahydropyrimidin-4-yl]anilino}-6-(difluoro-methyl)pyridine-2-carbonitrile]
0.212 µM	–	C[C@@]1(c2cccc(Nc3ccccc3OC(F)(F)F)c2Cl)CC(=O)N(C2CCOCC2)C(=N)N1 [Example 53, (6S)-6-{2-Chloro-3-[2-(trifluoromethoxy)anilino]-phenyl}-2-imino-6-methyl-3-(tetrahydropyran-4-yl)-hexahydropyrimidin-4-one]
0.556 µM	–	Cn1cnc2cc(Nc3cccc([C@]4(C)CC(=O)N(C5CCOCC5)C(=N)N4)c3Cl)cnc21 [Example 116, (6S)-6-{2-Chloro-3-[(3-methyl-imidazo[4,5-b]pyridin-6-yl)-amino]phenyl}-2-imino-6-methyl-3-(tetrahydropyran-4-yl)hexahydropyrimidin-4-one]
0.385 µM	–	C[C@@]1(c2cccc(Nc3ncc4ccccn34)c2Cl)CC(=O)N(C2CCOCC2)C(=N)N1 [Example 187, (6S)-6-[2-Chloro-3-(imidazo-[1,5-a]pyridin-3-ylamino)-phenyl]-2-imino-6-methyl-3-(tetrahydropyran-4-yl)-hexahydropyrimidin-4-one]
0.386 µM	–	C[C@@]1(c2cccc(Nc3cnccc3C#N)c2Cl)CC(=O)N(C2CCOCC2)C(=N)N1 [Example 48, 3-{2-Chloro-3-[(4S)-2-imino-4-methyl-6-oxo-1-(tetrahydro-pyran-4-yl)hexahydropyrimidin-4-yl]anilino}pyridine-4-carbo-nitrile]
0.217 µM	–	C[C@@]1(c2cccc(Nc3ncccc3C#N)c2Cl)CC(=O)N(C2CCOCC2)C(=N)N1 [Example 184, 2-{2-Chloro-3-[(4S)-2-imino-4-methyl-6-oxo-1-(tetrahydro-pyran-4-yl)hexahydropyrimidin-4-yl]anilino}pyridine-3-carbo-nitrile]
0.184 µM	–	C[C@@]1(c2cccc(Nc3ccc(F)cc3C#N)c2Cl)CC(=O)N([C@H]2C[C@@](C)(O)C2)C(=N)N1 [Example 127, 2-{2-Chloro-3-[(4S)-1-(3-hydroxy-3-methylcyclobutyl)-2-imino-4-methyl-6-oxo-hexahydropyrimidin-4-yl]-anilino}-5-fluorobenzonitrile]
0.066 µM	–	C[C@@]1(c2cccc(Nc3ccc(C4CC4)nc3)c2Cl)CC(=O)N(C2CCOCC2)C(=N)N1 [Example 99, (6S)-6-{2-Chloro-3-[(6-cyclo-propylpyridin-3-yl)amino]-phenyl}-2-imino-6-methyl-3-(tetrahydropyran-4-yl)-hexahydropyrimidin-4-one]
1.79 µM	–	C[C@@]1(c2cccc(Nc3ccc4ncnn4c3)c2Cl)CC(=O)N(C2CCOCC2)C(=N)N1 [Example 85, (6S)-6-[2-Chloro-3-([1,2,4]-triazolo[1,5-a]pyridin-6-yl-amino)phenyl]-2-imino-6-methyl-3-(tetrahydropyran-4-yl)hexahydropyrimidin-4-one]
0.863 µM	–	CC(C)(C)c1cnc(Nc2cccc([C@]3(C)CC(=O)N(C4CCOCC4)C(=N)N3)c2Cl)cn1 [Example 107, (6S)-6-{3-[(5-tert-Butylpyrazin-2-yl)amino]-2-chlorophenyl}-2-imino-6-methyl-3-(tetrahydro-pyran-4-yl)hexahydropyrimidin-4-one]
0.666 µM	–	COc1cc(Nc2cccc([C@]3(C)CC(=O)N(C4CCOCC4)C(=N)N3)c2Cl)ccn1 [Example 87, (6S)-6-{2-Chloro-3-[(2-methoxypyridin-4-yl)amino]-phenyl}-2-imino-6-methyl-3-(tetrahydropyran-4-yl)-hexahydropyrimidin-4-one]
0.224 µM	–	C[C@@]1(c2cccc(Nc3cc4ccccc4nc3OC(F)F)c2Cl)CC(=O)N(C2CCOCC2)C(=N)N1 [Example 98, (6S)-6-(2-Chloro-3-{[2-(difluoromethoxy)quinolin-3-yl]amino}phenyl)-2-imino-6-methyl-3-(tetrahydropyran-4-yl)hexahydropyrimidin-4-one]
